Data: PMC11844072, “Novel 5,6-dichlorobenzimidazole derivatives as dual BRAFWT and BRAFV600E inhibitors: design, synthesis, anti-cancer activity and molecular dynamics simulations” (BMC Chemistry, 2025)

Columns and labels:
Test in all cases: NCI 60 single concentration growth inhibition
Assay type in all cases: cell-based, human
A498 = conditions: Homo sapiens, A498, Renal cancer, read-out: GI%
Method in brief: (§1)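 Cells are plated and left 24 h, and a time-zero plate is fixed at drug addition. Compound is then added for 48 h, the cells are fixed in cold TCA and stained with 0.4% SRB, and bound dye is solubilised in 10 mM Tris for reading at 515 nm.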

CAKI-1 = conditions: Homo sapiens, CAKI-1, Renal cancer, read-out: GI%
Method in brief: as §1

CCRF-CEM = conditions: Homo sapiens, Leukemia, read-out: GI%
Method in brief: as §1

HCT-116 = conditions: Homo sapiens, HCT-116, Colon cancer, read-out: GI%
Method in brief: as §1

HL-60(TB) = conditions: Homo sapiens, Leukemia, read-out: GI%
Method in brief: (§2)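 Growth measured by sulforhodamine B protein staining (515 nm) after 48 h drug exposure at 37 °C, following 24 h plating in RPMI 1640 with 5% FBS and 2 mM L-glutamine. Compounds first tested at one 10 µM dose, then five-dose series (10-fold or ½ log steps); percent growth relative to time-zero and untreated wells.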

HOP-62 = conditions: Homo sapiens, HOP-62, Non-small cell lung cancer, read-out: GI%
Method in brief: as §1

HS 578T = conditions: Homo sapiens, Breast cancer, read-out: GI%
Method in brief: as §1

MDA-MB-231/ATCC = conditions: Homo sapiens, Breast cancer, read-out: GI%
Method in brief: as §1

MDA-MB-468 = conditions: Homo sapiens, MDA-MB-468, Breast cancer, read-out: GI%
Method in brief: as §1

NCI-H23 = conditions: Homo sapiens, NCI-H23, Non-small cell lung cancer, read-out: GI%
Method in brief: as §1

SF-539 = conditions: Homo sapiens, SF-539, CNS cancer, read-out: GI%
Method in brief: as §1

SK-MEL-28 = conditions: Homo sapiens, SK-MEL-28, Melanoma, read-out: GI%
Method in brief: as §1

SK-MEL-2 = conditions: Homo sapiens, SK-MEL-2, Melanoma, read-out: GI%
Method in brief: as §1

SK-MEL-5 = conditions: Homo sapiens, SK-MEL-5, Melanoma, read-out: GI%
Method in brief: as §1

SK-OV-3 = conditions: Homo sapiens, SK-OV-3, Ovarian cancer, read-out: GI%
Method in brief: as §1

SR = conditions: Homo sapiens, Leukemia, read-out: GI%
Method in brief: as §2

UACC-62 = conditions: Homo sapiens, UACC-62, Melanoma, read-out: GI%
Method in brief: as §1

HCC-2998 = conditions: Homo sapiens, HCC-2998, Colon cancer, read-out: GI%
Description: (§3) The synthesized dichlorobenzimidazoles 10a–p were assayed for their influence on divers cancer cell lines according to the method presented in the Additional file A.
(§4) 5. Screening of cytotoxic activity against a panel of sixty human tumor cell lines
(§5) The selected compounds by NCI were evaluated for their anticancer activity in a two-stage process. First, these compounds were screened against the full NCI 60 cell lines panel at a single high dose of 10 µM. Then, the output from the single dose screen is reported as a mean graph. […]
(§6) Assay protocol. The human tumor cell lines of the cancer screening panel are grown in RPMI 1640 medium containing 5% fetal bovine serum and 2 mM L-glutamine. For a typical screening experiment, cells are inoculated into 96 well microtiter plates in 100 µL at plating densities ranging from 5000 to 40,000 cells/well depending on the doubling time of individual cell lines. After cell inoculation, the microtiter plates are incubated at 37 °C, 5% CO 2, 95% air and 100% relative humidity for 24 h prior to addition of the experimental drugs.
(§7) After 24 h, two plates of each cell line are fixed in situ with TCA, to represent a measurement of the cell population for each cell line at the time of drug addition (Tz). The experimental drugs are solubilized in dimethyl sulfoxide at 400-fold the desired final maximum test concentration and stored frozen prior to use. At the time of drug addition, an aliquot of frozen concentrate is thawed and diluted to twice the desired final maximum test concentration with complete medium containing 50 µg/mL gentamicin. Additional four, 10-fold or ½ log serial dilutions are made to provide a total of five drug concentrations plus control.
(§8) Aliquots of […] of these different drug dilutions are added to the appropriate microtiter wells already containing […] of medium, resulting in the required final drug concentrations.
(§9) Following drug addition, the plates are incubated for an additional 48 h at 37 °C, 5% CO 2, 95% air, and 100% relative humidity. For adherent cells, the assay is terminated by the addition of cold TCA.
(§10) Cells are fixed in situ by the gentle addition of 50 µL of cold 50% (w/v) TCA (final concentration, 10% TCA) and incubated for 60 min at 4 °C. The supernatant is discarded, and the plates are washed five times with tap water and air dried. Sulforhodamine B (SRB) solution ([…]) at 0.4% (w/v) in 1% acetic acid is added to each well, and plates are incubated for 10 min at room temperature. After staining, unbound dye is removed by washing five times with 1% acetic acid and the plates are air dried. Bound stain is subsequently solubilized with 10 mM trizma base, and the absorbance is read on an automated plate reader at a wavelength of 515 nm. For suspension cells, the methodology is […]
(§11) the same except that the assay is terminated by fixing settled cells at the bottom of the wells by gently adding 50 µl of 80% TCA (final concentration, 16% TCA). Using the seven absorbance measurements [time zero, (Tz), control growth, (C), and test growth in the presence of drug at the five concentration levels (Ti)], the percentage growth is calculated at each of the drug concentrations […]
(§12) Percentage growth inhibition is calculated as: [(Ti Tz)/(C–Tz)] x 100 for concentrations for which Ti>/=Tz and [(Ti-Tz)/Tz] x 100 for concentrations for which Ti < Tz. […]
(§13) Results for each compound were reported as a mean graph of the percent growth of the treated cells when compared to the untreated control cells. There after obtaining the results for one dose assay, analysis of historical Development Therapeutics Programme (DTP) was performed and compounds which satisfies predetermined threshold inhibition criteria is selected for NCI full panel 5 dose assay.

SNB-19 = conditions: Homo sapiens, SNB-19, CNS cancer, read-out: GI%
Description: as §3, §4, §5, §6, §7, §8, §9, §10, §11, §12, §13

| SMILES | inhibition at 10 µM (A498) [%] | inhibition at 10 µM (CAKI-1) [%] | inhibition at 10 µM (CCRF-CEM) [%] | inhibition at 10 µM (HCT-116) [%] | inhibition at 10 µM (HL-60(TB)) [%] | inhibition at 10 µM (HOP-62) [%] | inhibition at 10 µM (HS 578T) [%] | inhibition at 10 µM (MDA-MB-231/ATCC) [%] | inhibition at 10 µM (MDA-MB-468) [%] | inhibition at 10 µM (NCI-H23) [%] | inhibition at 10 µM (SF-539) [%] | inhibition at 10 µM (SK-MEL-28) [%] | inhibition at 10 µM (SK-MEL-2) [%] | inhibition at 10 µM (SK-MEL-5) [%] | inhibition at 10 µM (SK-OV-3) [%] | inhibition at 10 µM (SR) [%] | inhibition at 10 µM (UACC-62) [%] | inhibition at 10 µM (HCC-2998) [%] | inhibition at 10 µM (SNB-19) [%] |
| --- | --- | --- | --- | --- | --- | --- | --- | --- | --- | --- | --- | --- | --- | --- | --- | --- | --- | --- | --- |
| COc1ccc(-c2nc3cc(Cl)c(Cl)cc3n2CC(=O)NN=Cc2cccc(O)c2)cc1 [Compound 10a, 2-(5,6-Dichloro-2-(4-methoxyphenyl)-1H-benzo[d]imidazol-1-yl)-N'-(3-hydroxybenzylidene)acetohydrazide] | 48.9 | 55 | 40.6 | 59.6 | 42.6 | 24.1 | 36.9 | 20 | 82.1 | 53.8 | 36.5 | 39.3 | 33.6 | 79.7 | 35.5 | 42 | 40 | 35.9 | 50.4 |
| COc1ccc(-c2nc3cc(Cl)c(Cl)cc3n2CC(=O)NN=Cc2ccc(O)cc2)cc1 [Compound 10b, 2-(5,6-Dichloro-2-(4-methoxyphenyl)-1H-benzo[d]imidazol-1-yl)-N'-(4-hydroxybenzylidene)acetohydrazide] | 25.9 | 57.2 | 25.4 | 45.1 | 50.7 | 19.3 | 37.8 | 21.2 | 90.1 | 20.3 | 32.5 | 26.4 | 32.3 | 52.1 | 24.6 | 64.7 | 38 | 21.4 | 39 |
| COc1ccc(-c2nc3cc(Cl)c(Cl)cc3n2CC(=O)NN=Cc2cccc(OC)c2)cc1 [Compound 10c, 2-(5,6-Dichloro-2-(4-methoxyphenyl)-1H-benzo[d]imidazol-1-yl)-N'-(3-methoxybenzylidene)acetohydrazide] | 22.7 | 43.5 | 41.8 | 37.9 | 28.8 | 6.68 | 28.9 | 15.1 | 76.1 | 10.2 | 24.4 | 20.5 | 19.4 | 44.5 | 10.1 | 48.4 | 37.2 | 7.72 | 32.4 |
| COc1ccc(C=NNC(=O)Cn2c(-c3ccc(OC)cc3)nc3cc(Cl)c(Cl)cc32)cc1 [Compound 10d, 2-(5,6-Dichloro-2-(4-methoxyphenyl)-1H-benzo[d]imidazol-1-yl)-N'-(4-methoxybenzylidene)acetohydrazide] | 47.2 | 52 | 40.2 | 61.3 | 40.9 | 23.6 | 34.6 | 27.4 | 81.8 | 50.9 | 34.2 | 33.5 | 30.9 | 78.9 | 30.4 | 35.1 | 34.1 | 34.9 | 50.5 |
| COc1ccc(-c2nc3cc(Cl)c(Cl)cc3n2CC(=O)NN=Cc2cccc(OCC(=O)O)c2)cc1 [Compound 10e, 2-(3-((2-(2-(5,6-Dichloro-2-(4-methoxyphenyl)-1H-benzo[d]imidazol-1-yl)acetyl)hydrazono)methyl)phenoxy)acetic acid] | < 5 | < 5 | < 5 | < 5 | < 5 | < 5 | 7.11 | < 5 | < 5 | 5.12 | < 5 | < 5 | < 5 | < 5 | < 5 | < 5 | < 5 | < 5 | < 5 |
| COc1ccc(-c2nc3cc(Cl)c(Cl)cc3n2CC(=O)NN=Cc2ccc(OCC(=O)O)cc2)cc1 [Compound 10f, 2-(4-((2-(2-(5,6-Dichloro-2-(4-methoxyphenyl)-1H-benzo[d]imidazol-1-yl)acetyl)hydrazono)methyl)phenoxy)acetic acid] | < 5 | 15 | < 5 | < 5 | < 5 | < 5 | < 5 | < 5 | 6.38 | < 5 | 10.8 | < 5 | < 5 | < 5 | < 5 | < 5 | < 5 | < 5 | < 5 |
